The record followed here is PubChem BioAssay (NCI).

Some test systems named below: CAKI-1 renal; COLO 205 colon; DU-145 prostate; IGROV1 ovarian; MDA-MB-435; MOLT-4 leukemia; NCI/ADR-RES ovarian; SK-MEL-28 melanoma; SR leukemia; SNB-75 CNS.
Holding throughout (experiment): NCI-60 cell line screen, 48 h

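Five concentrations, 48 hours, 96-well plates. GI50 = concentration required for 50% inhibition of growth. TGI marks complete inhibition of growth.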

Regarding `O=C(O)C#Cc1ccc([N+](=O)[O-])cc1`, the TGI in the assay with CAKI-1 renal, with COLO 205 colon, with DU-145 prostate, in the assay with IGROV1 ovarian, in the assay on MDA-MB-435 and with MOLT-4 leukemia was over 100 µM each time. Moreover, the TGI with NCI/ADR-RES ovarian, with SK-MEL-28 melanoma and in the assay on SR leukemia was over 100 µM in each case.

As for `Cc1cc2c(=O)cc(-c3ccc(C(=O)O)cc3)oc2c(C(=O)O)c1C`, the TGI in the assay with CAKI-1 renal, with COLO 205 colon, in the assay on IGROV1 ovarian, in the assay on MOLT-4 leukemia, with SK-MEL-28 melanoma and in the assay on SNB-75 CNS was over 100 µM each time. For the same compound, the TGI with SR leukemia was over 100 µM.

As to `COC(=O)CCC(=O)C(C#N)c1ccc(Cl)cc1Cl` (stereo not given), the TGI in the assay with CAKI-1 renal, in the assay with IGROV1 ovarian, in the assay on MOLT-4 leukemia, in the assay on SK-MEL-28 melanoma, with SNB-75 CNS and in the assay with SR leukemia was over 100 µM throughout.

On to `Cn1c(-c2ccccc2)c/c(=N\NS(C)(=O)=O)c2cc(S(=O)(=O)O)ccc21`, for which the TGI with CAKI-1 renal, in the assay on COLO 205 colon, in the assay with IGROV1 ovarian, in the assay on MOLT-4 leukemia, in the assay on SK-MEL-28 melanoma and with SNB-75 CNS was over 100 µM in each case. For the same compound, the TGI in the assay on SR leukemia is over 100 µM.

`COc1cc2c3c(n(CCCN4CCOCC4)c(=O)c2cc1OC)-c1cc2c(cc1C3=O)OCO2`: the GI50 in the assay with CAKI-1 renal is 0.52 µM; in the assay on COLO 205 colon, 40.4 µM; in the assay with DU-145 prostate, 0.612 µM; in the assay on IGROV1 ovarian, over 61 µM; in the assay with MDA-MB-435, 28 µM; in the assay on MOLT-4 leukemia, 0.0841 µM. Further, the values for the GI50 with NCI/ADR-RES ovarian, in the assay with SK-MEL-28 melanoma and in the assay with SNB-75 CNS were 1.57 µM, over 76.9 µM and 8.29 µM, respectively. In addition, the TGI with CAKI-1 renal is 14.6 µM; in the assay on COLO 205 colon, over 100 µM; with DU-145 prostate, over 21.6 µM; with IGROV1 ovarian, over 100 µM; in the assay on MDA-MB-435, over 84.4 µM; with MOLT-4 leukemia it was 1.81 µM. Besides, the TGI in the assay with NCI/ADR-RES ovarian was 27.1 µM; with SK-MEL-28 melanoma, over 100 µM; with SNB-75 CNS, over 100 µM.

As for `Cc1ccccc1C(C#N)/C(=N/NC(=O)C(=O)NN)C(=O)Nc1cccc(C(F)(F)F)c1` (stereo not given), the TGI in the assay with CAKI-1 renal, with COLO 205 colon, in the assay on IGROV1 ovarian, in the assay on MOLT-4 leukemia, in the assay on SK-MEL-28 melanoma and in the assay on SNB-75 CNS was over 100 µM each time. Also, in the assay on SR leukemia, the TGI is over 100 µM.

As for `COC1(C)Cc2c(c(C)c(O)c3c2C(=O)C=C(Cl)C3=O)O1` (stereo not given), the TGI in the assay on CAKI-1 renal is 42 µM; in the assay with COLO 205 colon, 38.1 µM; in the assay with DU-145 prostate, over 100 µM; in the assay on IGROV1 ovarian it was over 100 µM; in the assay on MDA-MB-435, over 100 µM; with MOLT-4 leukemia, 46.2 µM. Moreover, the TGI in the assay on SK-MEL-28 melanoma was over 66.3 µM; with SNB-75 CNS, over 100 µM; with SR leukemia, 23.5 µM.

Regarding `O=CNc1ccc2c(c1)Cc1cc([N+](=O)[O-])ccc1-2`, the GI50 in the assay with CAKI-1 renal is 3.29 µM; in the assay on COLO 205 colon, 2.87 µM; in the assay with DU-145 prostate, 2.83 µM; in the assay on IGROV1 ovarian it was 3.95 µM; in the assay on MOLT-4 leukemia it was 2.78 µM; with NCI/ADR-RES ovarian, 2.77 µM. The GI50 with SK-MEL-28 melanoma is over 22.3 µM; in the assay with SNB-75 CNS, 3.02 µM; with SR leukemia, 2.17 µM. Also, the TGI in the assay with CAKI-1 renal is over 100 µM; in the assay on COLO 205 colon, over 100 µM; in the assay with DU-145 prostate, over 100 µM; in the assay with IGROV1 ovarian, over 100 µM; in the assay with MOLT-4 leukemia, over 53.1 µM; in the assay on NCI/ADR-RES ovarian it was over 100 µM. In addition, the TGI in the assay on SK-MEL-28 melanoma is over 100 µM; in the assay with SNB-75 CNS it was over 59.5 µM; in the assay on SR leukemia, over 100 µM.

Consider `O=C(Cc1nc2ccccc2s1)NC12CC3CC(CC(C3)C1)C2`, for which the TGI in the assay with CAKI-1 renal, in the assay on MOLT-4 leukemia, in the assay on SK-MEL-28 melanoma, in the assay on SNB-75 CNS and in the assay on SR leukemia was over 100 µM each time.

In the case of `N#Cc1ccccc1/C=N/O`, the TGI with CAKI-1 renal is over 100 µM; in the assay on COLO 205 colon it was over 74.9 µM; in the assay on IGROV1 ovarian it was over 100 µM; with MOLT-4 leukemia, over 100 µM; with SK-MEL-28 melanoma, over 100 µM; in the assay on SNB-75 CNS, over 100 µM. Moreover, the TGI in the assay with SR leukemia is over 100 µM.

Consider `O=[N+]([O-])c1ccc(C2N3CCCCC3[C@@H]3c4[nH]c5ccccc5c4CCN23)cc1` (stereo not given in full), for which the TGI in the assay on CAKI-1 renal is over 100 µM; in the assay on COLO 205 colon, 38 µM; with IGROV1 ovarian, over 100 µM; in the assay with MOLT-4 leukemia, 49.6 µM; in the assay with SK-MEL-28 melanoma it was 42 µM; with SNB-75 CNS, 3.29 µM. In the assay on SR leukemia, this compound registered a TGI of over 100 µM.

On to `COC(=O)C1CCc2nnc(-c3cccnc3)n21` (stereo not given), for which the TGI with CAKI-1 renal, in the assay with COLO 205 colon, with IGROV1 ovarian, in the assay with MOLT-4 leukemia, in the assay with SK-MEL-28 melanoma and in the assay on SNB-75 CNS was over 100 µM in each case. Also, the TGI with SR leukemia was over 100 µM.

Regarding `CC(=O)/C=C/c1ccc(N(C)Cc2ccc(C(C)(C)C)cc2)cc1`, the GI50 in the assay with COLO 205 colon is 95.1 µM; in the assay with DU-145 prostate, 147 µM; with IGROV1 ovarian, 241 µM; in the assay on MDA-MB-435 it was 114 µM; in the assay with MOLT-4 leukemia, 116 µM; with NCI/ADR-RES ovarian, 114 µM. In addition, the GI50 with SK-MEL-28 melanoma was 134 µM; in the assay with SNB-75 CNS it was 145 µM; in the assay on SR leukemia it was 137 µM. For the same compound, the TGI in the assay on COLO 205 colon turned out to be 275 µM; in the assay on DU-145 prostate, 472 µM; with MDA-MB-435, 322 µM; with MOLT-4 leukemia it was 425 µM; in the assay with NCI/ADR-RES ovarian, 271 µM; in the assay with SK-MEL-28 melanoma, 279 µM. The TGI came to 345 µM with SNB-75 CNS and 499 µM in the assay on SR leukemia.

As for `O=c1nc2[nH]nc(-c3ccccc3)c2n[nH]1`, the TGI in the assay on CAKI-1 renal, in the assay on COLO 205 colon, with IGROV1 ovarian, in the assay with MOLT-4 leukemia, in the assay on SK-MEL-28 melanoma and in the assay with SR leukemia was over 100 µM throughout.

In the case of `CC(C)(C)C1CCN(C(=O)c2ccccc2)CC1`, the TGI with COLO 205 colon, in the assay on IGROV1 ovarian, in the assay with MOLT-4 leukemia, in the assay with SNB-75 CNS and in the assay with SR leukemia was over 100 µM throughout.
